# Data taken from PubChem BioAssay (NCI).
#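 Each compound was tested at five concentrations against cells in 96-well plates for 48 hours. TGI: concentration producing complete growth inhibition.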
# Legend:
# Assay in all cases: inhibition of tumour cell growth, NCI panel, 48 h
# 786-0 renal = test system: 786-0 renal
# A498 renal = test system: A498 renal
# A549 NSCLC = test system: A549 NSCLC
# ACHN renal = test system: ACHN renal
# BT-549 breast = test system: BT-549 breast
# CAKI-1 renal = test system: CAKI-1 renal
# CCRF-CEM leukemia = test system: CCRF-CEM leukemia
# COLO 205 colon = test system: COLO 205 colon
# DU-145 prostate = test system: DU-145 prostate
# HCC-2998 colon = test system: HCC-2998 colon
# HCT-116 colon = test system: HCT-116 colon
# HCT-15 colon = test system: HCT-15 colon
# HL-60(TB) leukemia = test system: HL-60(TB) leukemia
# HOP-62 NSCLC = test system: HOP-62 NSCLC
# HS 578T breast = test system: HS 578T breast
# HT29 colon = test system: HT29 colon
# IGROV1 ovarian = test system: IGROV1 ovarian
# K-562 leukemia = test system: K-562 leukemia
# KM12 colon = test system: KM12 colon
# M14 melanoma = test system: M14 melanoma
# MALME-3M melanoma = test system: MALME-3M melanoma
# MCF7 breast = test system: MCF7 breast
# MDA-MB-231 breast = test system: MDA-MB-231 breast
# MDA-MB-435 = test system: MDA-MB-435
# MDA-N = test system: MDA-N
# MOLT-4 leukemia = test system: MOLT-4 leukemia
# NCI-H226 lung = test system: NCI-H226 lung
# NCI-H23 lung = test system: NCI-H23 lung
# NCI-H460 lung = test system: NCI-H460 lung
# NCI-H522 lung = test system: NCI-H522 lung
# NCI/ADR-RES ovarian = test system: NCI/ADR-RES ovarian
# OVCAR-3 ovarian = test system: OVCAR-3 ovarian
# OVCAR-5 ovarian = test system: OVCAR-5 ovarian
# OVCAR-8 ovarian = test system: OVCAR-8 ovarian
# PC-3 prostate = test system: PC-3 prostate
# SF-268 CNS = test system: SF-268 CNS
# SF-295 CNS = test system: SF-295 CNS
# SF-539 CNS = test system: SF-539 CNS
# SK-MEL-2 melanoma = test system: SK-MEL-2 melanoma
# SK-MEL-28 melanoma = test system: SK-MEL-28 melanoma
# SK-MEL-5 melanoma = test system: SK-MEL-5 melanoma
# SK-OV-3 ovarian = test system: SK-OV-3 ovarian
# SN12C renal = test system: SN12C renal
# SNB-19 CNS = test system: SNB-19 CNS
# SNB-75 CNS = test system: SNB-75 CNS
# SR leukemia = test system: SR leukemia
# SW-620 colon = test system: SW-620 colon
# T-47D breast = test system: T-47D breast
# TK-10 renal = test system: TK-10 renal
# U251 CNS = test system: U251 CNS
# UACC-257 melanoma = test system: UACC-257 melanoma
# UACC-62 melanoma = test system: UACC-62 melanoma
# UO-31 renal = test system: UO-31 renal
smiles,measurement,setting,value
O=C(O)Cn1ccc(=O)c2cc([N+](=O)[O-])ccc21,TGI,786-0 renal,> 100 µM
same,TGI,A498 renal,> 100 µM
same,TGI,A549 NSCLC,> 100 µM
same,TGI,ACHN renal,> 100 µM
same,TGI,BT-549 breast,> 100 µM
same,TGI,CAKI-1 renal,> 100 µM
same,TGI,CCRF-CEM leukemia,> 100 µM
same,TGI,COLO 205 colon,> 100 µM
same,TGI,DU-145 prostate,> 100 µM
same,TGI,HCC-2998 colon,> 100 µM
same,TGI,HCT-116 colon,> 100 µM
same,TGI,HCT-15 colon,> 100 µM
same,TGI,HL-60(TB) leukemia,> 100 µM
same,TGI,HOP-62 NSCLC,> 100 µM
same,TGI,HS 578T breast,> 100 µM
same,TGI,HT29 colon,> 100 µM
same,TGI,IGROV1 ovarian,> 100 µM
same,TGI,K-562 leukemia,> 100 µM
same,TGI,KM12 colon,> 100 µM
same,TGI,M14 melanoma,> 100 µM
same,TGI,MALME-3M melanoma,> 100 µM
same,TGI,MCF7 breast,> 100 µM
same,TGI,MDA-MB-231 breast,33.5 µM
same,TGI,MDA-MB-435,> 100 µM
same,TGI,MDA-N,> 100 µM
same,TGI,MOLT-4 leukemia,> 100 µM
same,TGI,NCI-H226 lung,> 100 µM
same,TGI,NCI-H23 lung,> 100 µM
same,TGI,NCI-H460 lung,> 100 µM
same,TGI,NCI-H522 lung,> 100 µM
same,TGI,NCI/ADR-RES ovarian,> 100 µM
same,TGI,OVCAR-3 ovarian,> 100 µM
same,TGI,OVCAR-5 ovarian,> 100 µM
same,TGI,OVCAR-8 ovarian,> 100 µM
same,TGI,PC-3 prostate,> 100 µM
same,TGI,SF-268 CNS,> 100 µM
same,TGI,SF-295 CNS,> 100 µM
same,TGI,SF-539 CNS,> 100 µM
same,TGI,SK-MEL-2 melanoma,> 100 µM
same,TGI,SK-MEL-28 melanoma,> 100 µM
same,TGI,SK-MEL-5 melanoma,> 100 µM
same,TGI,SK-OV-3 ovarian,> 100 µM
same,TGI,SN12C renal,> 100 µM
same,TGI,SNB-19 CNS,> 100 µM
same,TGI,SNB-75 CNS,> 100 µM
same,TGI,SR leukemia,> 100 µM
same,TGI,SW-620 colon,> 100 µM
same,TGI,T-47D breast,> 100 µM
same,TGI,TK-10 renal,> 100 µM
same,TGI,U251 CNS,> 100 µM
same,TGI,UACC-257 melanoma,> 100 µM
same,TGI,UACC-62 melanoma,> 100 µM
same,TGI,UO-31 renal,> 100 µM
